Laboratory results reported in PubChem BioAssay AID1963861 (Molecular Pharmacology Branch, DTP, NCI, 2024).

System: 885724-159-R-J1-PDC KRAS PDC multicell spheroid viability
Experiment: Anticancer human tumor 885724-159-R-J1-PDC patient-derived pancreatic adenocarcinoma cell line growth inhibition [KRAS2]
Settings: for IC50: curve of first compound; for viability, T/C: stronger effect = lower value; active means viability on the fitted dose curve at most 10% of control; inactive means the rest
Procedure, shortened: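 KRAS-mutant tumor cells were grown as spheroids with HUVEC endothelial cells and human MSCs as stroma. Targeted agents were tested alone and with KRAS pathway inhibitors. Doses started at or near clinical Cmax, or 10 microM, descending half-log.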

[1] = second compound 0.1 µM, first compound 0.0316 µM
[2] = second compound 0.1 µM, first compound 0.1 µM
[3] = second compound 0.1 µM, first compound 0.316 µM
[4] = second compound 0.1 µM, first compound 1 µM
[5] = second compound 0.1 µM, first compound 3.16 µM
[6] = second compound 0.1 µM, first compound 10 µM
[7] = second compound 0.316 µM, first compound 0.0316 µM
[8] = second compound 0.316 µM, first compound 0.1 µM
[9] = second compound 0.316 µM, first compound 0.316 µM
[10] = second compound 0.316 µM, first compound 1 µM
[11] = second compound 0.316 µM, first compound 3.16 µM
[12] = second compound 0.316 µM, first compound 10 µM
[13] = second compound 1 µM, first compound 0.0316 µM
[14] = second compound 1 µM, first compound 0.1 µM
[15] = second compound 1 µM, first compound 0.316 µM
[16] = second compound 1 µM, first compound 1 µM
[17] = second compound 1 µM, first compound 3.16 µM
[18] = second compound 1 µM, first compound 10 µM
[19] = second compound 3.16 µM, first compound 0.0316 µM
[20] = second compound 3.16 µM, first compound 0.1 µM
[21] = second compound 3.16 µM, first compound 0.316 µM
[22] = second compound 3.16 µM, first compound 1 µM
[23] = second compound 3.16 µM, first compound 3.16 µM
[24] = second compound 3.16 µM, first compound 10 µM
[25] = second compound 10 µM, first compound 0.0316 µM
[26] = second compound 10 µM, first compound 0.1 µM
[27] = second compound 10 µM, first compound 0.316 µM
[28] = second compound 10 µM, first compound 1 µM
[29] = second compound 10 µM, first compound 3.16 µM
[30] = second compound 10 µM, first compound 10 µM
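Further: spheroids exposed to agents for 7 days before readout.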

CC1(C)CCC(CN2CCN(c3ccc(C(=O)NS(=O)(=O)c4ccc(NCC5CCOCC5)c([N+](=O)[O-])c4)c(Oc4cnc5[nH]ccc5c4)c3)CC2)=C(c2ccc(Cl)cc2)C1 + COc1cc2nc(C)nc(NC(C)c3cc(N)cc(C(F)(F)F)c3)c2cc1OC1CCOC1
7.29 µM: IC50 (second compound 0.1 µM)
6.93 µM: IC50 (second compound 0.316 µM)
5.01 µM: IC50 (second compound 1 µM)
inactive: viability, T/C [1] 93.7% | viability, T/C [2] 91.3% | viability, T/C [3] 91.8% | viability, T/C [4] 88.3% | viability, T/C [5] 82.2% | viability, T/C [6] 37.6% | viability, T/C [7] 96.9% | viability, T/C [8] 88.4% | viability, T/C [9] 86% | viability, T/C [10] 92.7% | viability, T/C [11] 79.5% | viability, T/C [12] 35.7% | viability, T/C [13] 91.2% | viability, T/C [14] 88.3% | viability, T/C [15] 81.9% | viability, T/C [16] 83.1% | viability, T/C [17] 64.1% | viability, T/C [18] 28% | viability, T/C [19] 84.4% | viability, T/C [20] 82.8% | viability, T/C [21] 84.4% | viability, T/C [22] 71.7% | viability, T/C [23] 59.7% | viability, T/C [24] 26.4% | viability, T/C [25] 31.2% | viability, T/C [26] 35.5% | viability, T/C [27] 23.4% | viability, T/C [28] 27.7% | viability, T/C [29] 26.2% | viability, T/C [30] 8.47%
< 0.0316 µM: IC50 (second compound 10 µM)
4.31 µM: IC50 (second compound 3.16 µM)

CN(C)C/C=C/C(=O)Nc1cc2c(Nc3ccc(F)c(Cl)c3)ncnc2cc1O[C@H]1CCOC1 + C=CC(=O)N1CCN(c2nc(=O)n(-c3c(C)ccnc3C(C)C)c3nc(-c4c(O)cccc4F)c(F)cc23)C(C)C1
> 0.1 µM: IC50 (second compound 0.1 µM) | IC50 (second compound 0.316 µM) | IC50 (second compound 1 µM) | IC50 (second compound 3.16 µM) | IC50 (second compound 10 µM)
inactive: viability, T/C (second compound 0.1 µM, first compound 0.000316 µM) 116% | viability, T/C (second compound 0.1 µM, first compound 0.001 µM) 117% | viability, T/C (second compound 0.1 µM, first compound 0.00316 µM) 106% | viability, T/C (second compound 0.1 µM, first compound 0.01 µM) 95.4% | viability, T/C [1] 90.8% | viability, T/C [2] 79.9% | viability, T/C (second compound 0.316 µM, first compound 0.000316 µM) 124% | viability, T/C (second compound 0.316 µM, first compound 0.001 µM) 118% | viability, T/C (second compound 0.316 µM, first compound 0.00316 µM) 101% | viability, T/C (second compound 0.316 µM, first compound 0.01 µM) 101% | viability, T/C [7] 92.6% | viability, T/C [8] 86% | viability, T/C (second compound 1 µM, first compound 0.000316 µM) 130% | viability, T/C (second compound 1 µM, first compound 0.001 µM) 119% | viability, T/C (second compound 1 µM, first compound 0.00316 µM) 117% | viability, T/C (second compound 1 µM, first compound 0.01 µM) 110% | viability, T/C [13] 93.7% | viability, T/C [14] 90.8% | viability, T/C (second compound 3.16 µM, first compound 0.000316 µM) 114% | viability, T/C (second compound 3.16 µM, first compound 0.001 µM) 117% | viability, T/C (second compound 3.16 µM, first compound 0.00316 µM) 104% | viability, T/C (second compound 3.16 µM, first compound 0.01 µM) 97% | viability, T/C [19] 101% | viability, T/C [20] 89.4% | viability, T/C (second compound 10 µM, first compound 0.000316 µM) 89.4% | viability, T/C (second compound 10 µM, first compound 0.001 µM) 95% | viability, T/C (second compound 10 µM, first compound 0.00316 µM) 83.2% | viability, T/C (second compound 10 µM, first compound 0.01 µM) 78.3% | viability, T/C [25] 66.2% | viability, T/C [26] 69.4%

COc1cc(Nc2ncc3c(n2)-c2ccc(Cl)cc2C(c2c(F)cccc2OC)=NC3)ccc1C(=O)O + CNCc1ccccc1-c1csc(C(C)Nc2nc(C)nc3cc(OC)c(OC)cc23)c1
< 0.0316 µM: IC50 (second compound 3.16 µM) | IC50 (second compound 10 µM)
active: viability, T/C [19] 2.11% | viability, T/C [20] 2.66% | viability, T/C [21] 1.13% | viability, T/C [22] 1.16% | viability, T/C [23] 4.03% | viability, T/C [24] 12.1% | viability, T/C [25] 0.16% | viability, T/C [26] 0.37% | viability, T/C [27] 0.43% | viability, T/C [28] 0.34% | viability, T/C [29] 0.16% | viability, T/C [30] 0.35%
inactive: viability, T/C [1] 102% | viability, T/C [2] 98.5% | viability, T/C [3] 90.5% | viability, T/C [4] 92.7% | viability, T/C [5] 94.7% | viability, T/C [6] 101% | viability, T/C [7] 102% | viability, T/C [8] 92.7% | viability, T/C [9] 89.4% | viability, T/C [10] 88.5% | viability, T/C [11] 81% | viability, T/C [12] 87.7% | viability, T/C [13] 94.8% | viability, T/C [14] 87.7% | viability, T/C [15] 73.6% | viability, T/C [16] 81.4% | viability, T/C [17] 75.6% | viability, T/C [18] 83.5%
> 10 µM: IC50 (second compound 0.1 µM) | IC50 (second compound 0.316 µM) | IC50 (second compound 1 µM)
